pIC50: −log10 of the molar value. Residues, ends and D or L forms follow the SMILES beside them. *: point of attachment. Naproxen = COc1ccc2cc([C@H](C)C(=O)*)ccc2c1
Assays:
HeLa cells [1] = assay: live cell imaging of intracellular self-assembly; type: cell-based; details: 500 μM
Experimental: We seeded 2×10^5 of HeLa cells in Glass Chamber (Thermo Scientific Nunc Lab-Tek, 2-well) with MEM medium (2 mL) that was supplemented with 10% FBS, 100 U/mL penicillin and 100 mg mL 21 streptomycin for 4 h to allow the cell attachment. In order to perform the PTP1B Inhibition assay, we then replaced the culture medium in both wells and re-incubated the cells for 1 h, for which one-half of the wells was incubated in the medium containing 25 μM CinnGEL 2Me (novel inhibitor of PTP1B, prepared by reconstitution in DMSO), other well as a control was in the culture medium plus the same volume of DMSO. Ishino, Y.; et al. Mol. Vis. 2008, 14, 61. After that, we replaced the medium and washed the HeLa cells with PBS buffer for three times. Then we fixed the cell containing glass chamber on the confocal microscope stage, and replaced the PBS buffer with 1 mL solution of our fluorescent hydrogelators (500 μM, dissolved in PBS buffer) for each well. The sample we added into the PTP1B inhibition well also contained 25 μM of CinnGEL 2Me. Thereafter fluorescent images were captured immediately in the xyt mode with a delay of 11.64 s between frames.

ALP = assay: enzymatic dephosphorylation followed by 31P NMR; type: biochemical; details: 1.0 wt %, 0.02 U/mL ALP, pH 7.6, 25° C.
Experimental: To evaluate the rate of enzymatic hydrogelation process, we used ^31P NMR and rheology to study the transformation of the precursors 11a and 11b upon the treatment of ALP (FIG. 26). We first dissolved 10 mg of 11a and 11b into 1.0 mL of water at pH 7.6, respectively, to afford clear solutions with concentrations of 1.0 wt %. Once adding 0.02 U/mL of alkaline phosphates, we immediately monitored the solutions of 11a and 11b by ^31P NMR and oscillatory rheology at 25° C. The ^31P NMR spectra at 3 min, 1 h, 2 h, 4 h, 6 h, 8 h, 10 h, 12 h, 14 h, 18 h, 24 h, and 48 h indicate that the phosphate groups on the L-tyrosine of 11a and D-tyrosine 11b (δ=−2.7) become free phosphates (δ=0.0) at almost same rate, and dephosphorylation finishes after 48 hours. […] FIGS. 26C and 26D display the time dependent rheology studies of 11a and 11b. At the beginning, values of G″ are higher than the values of G′ for the solutions of 11a and 11b, indicating both of them are fluids. However, as 11a and 11b slowly turn into hydrogelators 12a and 12b by enzymatic dephosphorylation, the solutions start to form solid-like hydrogels with values of G′ become higher than those of G″. The gelation points for 12a and 12b, at where G′s intersect with G″s, are both achieved around 5 hours after the addition of enzyme. […]

[2] = enzymatic hydrogelation with ALP; type: physicochemical; details: 1.0 U/mL ALP, pH 7.6, 0.4-1.0 wt %
Experimental: To investigate the enzymatic hydrogelation of the D-peptidic precursor 11b, we prepared a series of hydrogels formed by using ALP to treat 11b at different concentrations. After dissolving 1.0, 2.0, 3.0, 4.0, and 5.0 mg of 11b in 0.5 mL of water (pH 7.6), respectively, we obtained clear solutions of 11b with different concentrations. The treatment of the solutions of 11b with ALP (1.0 U/mL) afforded the molecules of hydrogelator 12b, which are less soluble than 11b and thus self-assemble in water to form hydrogels when the concentrations of 12b are sufficient.
All the compounds were dissolved in de-ionized water. We then adjusted pH of the solutions carefully adding 1 M of NaOH and 1 M of HCl and measured the values by pH paper (pH 6.0-8.0). After prepared clear weakly basic solutions (pH 7.6 or 7.4), we then formed the hydrogels by adding enzymes (alkaline phosphatase).

COX-1 (ovine) enzyme = molecular target: T1, COX-1 (ovine) enzyme (Ovis aries, UniProt P05979); assay: COX Fluorescent Inhibitor Screening Assay, COX-1; type: biochemical; details: read-out: IC50 for inhibiting COX-1 enzyme
T1 construct: purchased Cayman Chemical 700100
T1 sequence (P05979 25-600): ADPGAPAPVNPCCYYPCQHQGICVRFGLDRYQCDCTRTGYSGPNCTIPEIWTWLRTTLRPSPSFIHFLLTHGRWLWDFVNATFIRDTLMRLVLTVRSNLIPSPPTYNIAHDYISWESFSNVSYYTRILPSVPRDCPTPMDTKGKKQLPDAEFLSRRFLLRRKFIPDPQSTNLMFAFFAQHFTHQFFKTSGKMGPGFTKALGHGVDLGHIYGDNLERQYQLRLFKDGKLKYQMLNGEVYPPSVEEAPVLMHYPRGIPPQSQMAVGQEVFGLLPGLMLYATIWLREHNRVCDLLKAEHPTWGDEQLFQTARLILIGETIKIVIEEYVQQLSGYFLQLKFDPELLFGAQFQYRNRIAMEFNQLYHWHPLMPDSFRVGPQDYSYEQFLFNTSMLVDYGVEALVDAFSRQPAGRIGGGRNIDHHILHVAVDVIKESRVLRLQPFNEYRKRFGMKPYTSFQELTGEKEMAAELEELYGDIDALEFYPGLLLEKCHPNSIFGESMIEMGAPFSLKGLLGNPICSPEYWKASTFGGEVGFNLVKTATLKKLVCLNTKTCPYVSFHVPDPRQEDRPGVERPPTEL
Experimental: (§1) To study the drug efficacies of NSAID containing hydrogelators, here we used ‘COX Fluorescent Inhibitor Screening Assay Kit’ (700100; Cayman Chemical) to do in vitro inhibition assays for Npx and Npx containing hydrogelors 1, 2, 3, 4, 5, and 6. Each compound was tested by COX-1 (ovine) enzyme and COX-2 (human recombinant) enzyme separately in 96 well black assay plates. By utilizing the peroxidase component of COXs, we monitored the reaction between PGG2 and ADHP (10-acetyl-3,7-dihydroxyphenoxazine), which produced highly fluorescent compound resorufin. This resorufin can be easily analyzed by multimode detector with an excitation wavelength of 530-540 nm and an emission wavelength of 585-595 nm. All the compounds are assayed in triplicate. After the combination of 10 μl of inhibitors, 10 μl of Heme solution, 10 μL of fluorometric substrate, 10 μl of enzyme (either COX-1 or COX-2), and 150 μl of assay buffer, we quickly add 10 μl of arachidonic acid solution to initiate the reaction. Then we read the plate exactly after two minutes incubation at room temperature. In this experiment, we also measure the blank data without enzyme and inhibitors, and the control data without inhibitors. The IC50 values of these hydrogelators were read from their activity curves (FIG. 18), which were measured with 5 different concentrations of these hydrogelators (dissolved in DMSO).

[3] = molecular target: T2, COX-2 (human recombinant) enzyme (Homo sapiens, UniProt P35354); assay: COX Fluorescent Inhibitor Screening Assay, COX-2; type: biochemical
T2 construct: purchased Cayman Chemical 700100
T2 sequence (P35354 18-604): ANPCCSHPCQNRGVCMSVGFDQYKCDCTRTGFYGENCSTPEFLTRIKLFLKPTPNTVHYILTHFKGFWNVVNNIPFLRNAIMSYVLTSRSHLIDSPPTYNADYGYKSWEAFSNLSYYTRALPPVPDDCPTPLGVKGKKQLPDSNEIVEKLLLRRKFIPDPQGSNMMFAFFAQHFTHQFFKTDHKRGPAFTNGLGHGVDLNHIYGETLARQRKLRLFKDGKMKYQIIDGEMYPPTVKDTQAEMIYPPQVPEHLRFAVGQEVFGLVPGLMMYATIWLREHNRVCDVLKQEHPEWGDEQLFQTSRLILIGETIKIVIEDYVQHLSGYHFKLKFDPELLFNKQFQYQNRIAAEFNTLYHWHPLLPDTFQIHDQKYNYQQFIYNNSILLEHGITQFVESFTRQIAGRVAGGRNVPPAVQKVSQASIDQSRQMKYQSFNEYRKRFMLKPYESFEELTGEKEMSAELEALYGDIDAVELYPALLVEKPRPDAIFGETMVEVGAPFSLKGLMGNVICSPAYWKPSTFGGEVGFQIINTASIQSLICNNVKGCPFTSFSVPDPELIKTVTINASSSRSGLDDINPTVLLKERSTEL
Experimental: as §1

HeLa cells [4] = assay: cells; type: cell-based; details: Homo sapiens, HeLa; 72 hours at 37° C., MTT; read-out: IC50, HeLa cell viability
Experimental: We seeded […] (cells/well) of health HeLa cells into 96-well plate with 100 μL of MEM medium supplemented with 10% fetal bovine serum (FBS), 100 U/mL penicillin and 100 mg mL21 streptomycin. The incubation at 37° C. and 5% CO2 for 12 hours allowed HeLa cells to attach the bottom of 96-well plate. Then we replaced the medium by another 100 μL of growth medium that contained serial diluents of our compounds (0.5% DMSO) and then incubated the cells at 37° C. and 5% CO2 for additional 72 hours. During the measurement of proliferation for HeLa cells, which were assayed into three days, we added 10 μL of (3-(4,5-Dimethylthiazol-2-yl)-2,5-diphenyltetrazolium bromide (MTT, 0.5 mg/mL) into the assigned wells in their corresponding day every 24 hours, which was followed by adding 100 μL of 0.1% sodium dodecyl sulfate (SDS) 4 hours later. Then we collected the assay results after another 24 hours incubation. Since the mitochondrial reductase in living cells reduced MTT to purple fomazan, the absorbance at 595 nm of the whole solution was finally measured by DTX 880 Multimode Detector. With MEM medium as blank and untreated HeLa cells as control, we measure each concentration of these compounds in triplicate. The IC50 values of our hydrogelators were read from their activity curves (with the measurement of 8 different concentrations) in day 3.

4T1-luciferase cells = assay: in vivo evaluation of antitumor activity; parameters: species or system Balb/c mice; details: intravenous 4×10 mg/kg every other day from day 0
Experimental: After inoculating female Balb/c mice with 2×10^5 of 4T1-luciferase cells in the mammary fat pad, we allow tumors grow until their sizes reach about 500 mm^3, and randomly divide them into different treatment groups: (1) intravenous injections of PBS vehicle control; (2) intravenous injection of 4×10 mg/kg Taxol® every other day from day 0 for indicated times; (3) a single intratumoral injection of 10 mg/kg Taxol containing hydrogels in 40 μL volume. With the treatments of 16 (Taxol; paclitaxel), 20a, 20b, or PBS buffer (control) for 14 days, we monitor the relative tumor sizes (calculated by the formula: tumor volume=length×width×(Length+Width)/2) and relative weights of mice every two days. […] Therefore, we have to divide 40 mg/kg of 16 into four injections with each injection of 10 mg/kg. […] This promising result warrants further investigation of the D-peptidic hydrogels of Taxol on animal models.
Female Balb/c mice were incubated with 2×10^5 4 T1-luciferase cells in the mammary fat pad. Tumor growth was monitored every other day and the tumor volume was calculated by the formula: length×width×(Length+Width)/2. Once tumors size reached around 500 mm^3, we randomly divided mice into different treatment groups. […] Mice weight was monitored after receiving treatment and presented as relative weight (%).

[5] = toxicity and relative weight of treated mice; type: in vivo, Balb/c mice; details: single injection of 40 mg/kg, formulated with Cremophor EL, 40 mg/kg
COX-2 = COX-2 (Homo sapiens, UniProt P35354); details: read-out: reported IC50 of naproxen to COX-2; literature; cited from earlier work

2-(Naphthalen-2-yl)acetyl-(D)-Phe-(D)-Phe-(D)-Lys(NBD)-(D)-Tyr phosphate [14b]
time until fluorescence emerges (HeLa cells [1]; with 25 μM CinnGEL 2Me (PTP1B inhibitor)): 5 min
time until cells exhibit strong fluorescence (HeLa cells [1]; without PTP1B inhibitor): 2 min

2-(Naphthalen-2-yl)acetyl-(D)-Phe-(D)-Phe-(D)-Lys-(D)-Tyr phosphate [11b]
time at which dephosphorylation finishes (ALP): 48 h
time to form hydrogel after addition of ALP [2]: ≤ 24 h

2-(Naphthalen-2-yl)acetyl-(L)-Phe-(L)-Phe-(L)-Lys-(L)-Tyr phosphate [11a, reference compound]
time at which dephosphorylation finishes (ALP): 48 h

COc1ccc2cc([C@H](C)C(=O)N[C@@H](Cc3ccccc3)C(=O)N[C@@H](Cc3ccccc3)C(=O)N[C@@H](CCCCN)C(=O)N[C@@H](Cc3ccc(O)cc3)C(=O)O)ccc2c1 [L-4, Naproxen-L-Phe-L-Phe-L-Lys-L-Tyr, reference compound] (Naproxen-FFKY-OH)
pIC50 (COX-1 (ovine) enzyme): 3.94
selectivity S for COX-2 (IC50 of COX-1/IC50 of COX-2) [3]: about 3

CC(=O)O[C@H]1C(=O)[C@@]2(C)[C@H]([C@H](OC(=O)c3ccccc3)[C@]3(O)C[C@H](OC(=O)[C@H](O)[C@@H](NC(=O)c4ccccc4)c4ccccc4)C(C)=C1C3(C)C)[C@]1(OC(C)=O)CO[C@@H]1C[C@@H]2O [compound 16, paclitaxel]
pIC50 (HeLa cells [4]): 7.34
relative tumor size vs control (4T1-luciferase cells): smaller than those of the control group after day 8
lethality ([5]; listed as Taxol): Mice died immediately
lethality ([5]; listed as Taxol®): may cause the death of mouse immediately

COc1ccc2cc([C@H](C)C(=O)O)ccc2c1 [naproxen]
pIC50 (COX-2): 4.55 to 5.70
